What all share (test): inhibition of tumour cell growth, NCI panel, 48 h
In assay [1] the test system is Malme-3M.
For assay [2], the system named is UACC-62.
Assay [3] concerns NCI-H460.
Assay [4] deals with EKVX.
Assay [5] concerns SK-MEL-5.
In assay [6] the test system is SK-MEL-2.
In assay [7] the test system is HOP-62.
The test system of assay [8] is CAKI-1.
The test system of assay [9] is UO-31.
Assay [10] has as its system SNB-19.
Assay [11] relates to CCRF-CEM.
Assay [12] relates to HCC 2998.
Assay [13] relates to SK-OV-3.
Assay [14] concerns MOLT-4.
Assay [15] has as its system OVCAR-5.
The test system of assay [16] is A549.
Assay [17] relates to KM12.
The subject of assay [18] is COLO 205.
The test system of assay [19] is SF-295.
Assay [20] concerns LOX IMVI.

The text below walks through data of ChEMBL document CHEMBL1201862, “PubChem BioAssay data set” (2004).

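Step 1: Grow cells in 96-well plates. Step 2: Expose to compound for 48 hours at 5 concentrations. Step 3: Interpolate endpoints linearly; if unreached, use highest concentration. At the GI50, growth is halved.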 Activity calls are given as the source filed them. No stated cut-off is given here; in the data, active = GI50 up to about 1.1 µM and inactive = higher.

On to `COc1cc2cc(C(=O)N3C[C@H](CCl)c4c3cc(O)c3ccccc43)[nH]c2c(OC)c1OC`, for which the GI50 is 0.152 µM (active) in [1]; 0.106 µM (active) in assay [2]; 0.042 µM (active) in assay [3]; 0.31 µM (active) in assay [4]; 0.0137 µM (active) in assay [5]; 0.203 µM (active) in assay [6]. For the same compound, the GI50 in [7] was 0.044 µM (active); in assay [8] it was 0.789 µM (active); in assay [9] it was 0.13 µM (active); in [10], 0.246 µM (active); in [11] it was 0.207 µM (active); in [12], 0.16 µM (active). In addition, the GI50 in assay [13] is 0.515 µM (active); in assay [14] it was 0.0381 µM (active); in assay [15], 0.264 µM (active); in [16], 0.252 µM (active); in [17], 0.213 µM (active); in assay [18], 1.32 µM (inactive). In addition, the GI50 is 0.107 µM (active) in assay [19] and 0.101 µM (active) in assay [20].

For the compound `COc1ccc(C(=O)NC2=C(Cl)C(=O)c3ccccc3C2=O)cc1`, the GI50 in assay [1] is 1.48 µM (inactive); in assay [2] it was 0.471 µM (active); in assay [3], 3.1 µM (inactive); in [4] it was 5.3 µM (inactive); in assay [5], 1.58 µM (inactive); in [6], 1.02 µM (active). Further, the GI50 was 18 µM (inactive) in assay [7]; 2.3 µM (inactive) in assay [8]; 1.9 µM (inactive) in [9]; 5.16 µM (inactive) in assay [10]; 3.23 µM (inactive) in assay [11]; 4.49 µM (inactive) in assay [12]. Besides, the GI50 in [13] was 2.23 µM (inactive); in assay [14], 0.955 µM (active); in assay [15], 2.7 µM (inactive); in assay [16] it was 4.08 µM (inactive); in assay [17] it was 1.07 µM (active); in assay [18] it was 1.89 µM (inactive). Also, the GI50 is 3.85 µM (inactive) in assay [19] and 2.3 µM (inactive) in assay [20].

In the case of `COc1ccc(N2C(=O)/C(=C/c3ccc(N(CCC#N)CCC#N)cc3C)N=C2c2cc([N+](=O)[O-])ccc2Cl)cc1`, the GI50 was 27 µM (inactive) in assay [1]; 5.27 µM (inactive) in [2]; 4.5 µM (inactive) in [3]; 14.5 µM (inactive) in assay [4]; 5.43 µM (inactive) in assay [5]; 6.15 µM (inactive) in assay [6]. Moreover, the GI50 is 5.46 µM (inactive) in assay [7]; 7 µM (inactive) in assay [8]; 5.19 µM (inactive) in [9]; 8.13 µM (inactive) in assay [10]; 3.77 µM (inactive) in assay [11]; 4.68 µM (inactive) in assay [12]. Also, the GI50 was 4.54 µM (inactive) in assay [13]; 4.73 µM (inactive) in assay [14]; 25.4 µM (inactive) in assay [15]; 4.89 µM (inactive) in assay [16]; 6.52 µM (inactive) in assay [17]; 4.34 µM (inactive) in [18]. Also, the GI50 is 3.05 µM (inactive) in assay [19] and 6.43 µM (inactive) in [20].

With `COc1cc(/C=C2\CCc3ccccc3C2=O)cc(OC)c1OC`, the GI50 in assay [1] is 16.4 µM (inactive); in [2], 14.3 µM (inactive); in assay [3], 16.9 µM (inactive); in assay [4] it was 17.9 µM (inactive); in assay [5] it was 12.6 µM (inactive); in [6] it was 15.8 µM (inactive). Also, the GI50 in assay [7] is 21.5 µM (inactive); in assay [8] it was 16.1 µM (inactive); in assay [9], 16.8 µM (inactive); in [10], 15.8 µM (inactive); in assay [11] it was 4.89 µM (inactive); in assay [12] it was 18 µM (inactive). In addition, the GI50 was 18.6 µM (inactive) in assay [13]; 9.4 µM (inactive) in assay [14]; 14.4 µM (inactive) in [15]; 20.9 µM (inactive) in assay [16]; 13.6 µM (inactive) in [17]; 17 µM (inactive) in assay [18]. Further, the results for the GI50 in [19] and in [20] were 15 µM (inactive) and 11.9 µM (inactive), respectively.

As to `CCC(=O)Nc1ccc(NS(=O)(=O)c2ccc(Cl)cc2)cc1`, the GI50 in [1] was > 100 µM (inactive); in assay [2], 99.3 µM (inactive); in assay [3], > 100 µM (inactive); in assay [4], 39.8 µM (inactive); in assay [5] it was 47.6 µM (inactive); in [6], > 100 µM (inactive). In addition, the GI50 in assay [7] is > 100 µM (inactive); in assay [8], 91.4 µM (inactive); in [9], > 100 µM (inactive); in [10], > 100 µM (inactive); in [11], > 100 µM (inactive); in assay [12], > 100 µM (inactive). Further, the GI50 is > 100 µM (inactive) in [13]; 34.5 µM (inactive) in assay [14]; > 100 µM (inactive) in assay [15]; > 100 µM (inactive) in assay [16]; > 100 µM (inactive) in [17]; > 100 µM (inactive) in [18]. Also, the GI50 in [19] is 45.4 µM (inactive); in assay [20], > 100 µM (inactive).

Consider `O=C(c1ccccc1Br)C(F)(F)F`, for which the GI50 is > 100 µM (inactive) in [1]; > 100 µM (inactive) in [2]; > 100 µM (inactive) in assay [3]; > 100 µM (inactive) in [4]; > 100 µM (inactive) in assay [5]; > 10 µM (inactive) in [6]. Further, the GI50 in assay [7], in assay [8], in assay [9], in assay [10], in assay [11] and in [12] was > 100 µM (inactive) throughout. In addition, the GI50 is > 100 µM (inactive) in assay [13]; > 100 µM (inactive) in [14]; > 100 µM (inactive) in assay [15]; > 100 µM (inactive) in assay [16]; > 100 µM (inactive) in assay [17]; 88.9 µM (inactive) in assay [18]. Also, the GI50 in [19] and in [20] was > 100 µM (inactive) throughout.

Turning to `CCCNC(=S)N/C=C1/C(=O)Oc2ccccc2C1=O`, the GI50 in assay [1] is 63.7 µM (inactive); in assay [2], 92 µM (inactive); in assay [3] it was > 100 µM (inactive); in assay [4], > 100 µM (inactive); in assay [5], > 100 µM (inactive); in [6] it was 75.3 µM (inactive). The GI50 in assay [7] was > 100 µM (inactive); in assay [8], > 100 µM (inactive); in assay [9], 28.4 µM (inactive); in [10] it was > 100 µM (inactive); in [11] it was > 100 µM (inactive); in [12], > 100 µM (inactive). In addition, the GI50 in assay [13] is 42.2 µM (inactive); in [14], > 100 µM (inactive); in assay [15], > 100 µM (inactive); in assay [16], > 100 µM (inactive); in assay [17], > 100 µM (inactive); in assay [18] it was > 100 µM (inactive). For the same compound, the GI50 in [19] and in assay [20] was > 100 µM (inactive) throughout.

In the case of `Oc1c2c(c(O)c3ccccc13)C1(N=N2)c2ccccc2Oc2ccccc21`, the GI50 is 2.48 µM (inactive) in assay [1]; 11.1 µM (inactive) in [2]; 18.5 µM (inactive) in [3]; 13 µM (inactive) in assay [4]; 13 µM (inactive) in [5]; 12 µM (inactive) in [6]. Moreover, the GI50 in assay [7] was 16 µM (inactive); in assay [8], 10.3 µM (inactive); in [9], 6.68 µM (inactive); in [10], 16.2 µM (inactive); in assay [11], 3.2 µM (inactive); in assay [12], 18.7 µM (inactive). In addition, the GI50 is 16 µM (inactive) in assay [13]; 4.17 µM (inactive) in [14]; 10.2 µM (inactive) in assay [15]; 10 µM (inactive) in assay [16]; 15.4 µM (inactive) in assay [17]; 13 µM (inactive) in [18]. Also, the GI50 was 15 µM (inactive) in [19] and 2.38 µM (inactive) in [20].

For the compound `C=CCSC1=N/C(=C\c2ccco2)C(=O)N1CC=C`, the GI50 in assay [1] is > 100 µM (inactive); in [2], 39.4 µM (inactive); in assay [3], > 100 µM (inactive); in [4] it was 40.3 µM (inactive); in assay [5], 37.5 µM (inactive); in assay [6], > 100 µM (inactive). The GI50 in [7] is > 100 µM (inactive); in assay [8] it was 70.6 µM (inactive); in assay [9] it was 53 µM (inactive); in assay [10], > 100 µM (inactive); in [11] it was 42.6 µM (inactive); in [12] it was > 100 µM (inactive). Further, the GI50 in [13] was > 100 µM (inactive); in assay [14], 25.9 µM (inactive); in assay [15], > 100 µM (inactive); in [16], 79.1 µM (inactive); in assay [17], 64.4 µM (inactive); in assay [18], 83.6 µM (inactive). The GI50 in assay [19] is 71.1 µM (inactive); in assay [20] it was 69.3 µM (inactive).

`CCOC(=O)C(CCCNC(=O)OC(C)(C)C)N(Cc1ccc(OC)cc1OC)C(=O)CC(=O)CP(=O)(OCC)OCC` (stereo not given): the GI50 in [1], in assay [2], in assay [3], in [4], in assay [5] and in assay [6] was > 100 µM (inactive) throughout. Also, the GI50 in assay [7], in assay [8], in assay [9], in [10], in assay [11] and in assay [12] was > 100 µM (inactive) in each case. In addition, the GI50 in assay [13] is > 100 µM (inactive); in [14] it was 56.5 µM (inactive); in assay [15], > 100 µM (inactive); in assay [16] it was > 100 µM (inactive); in assay [17] it was > 100 µM (inactive); in assay [18], > 100 µM (inactive). The GI50 in [19] and in assay [20] was > 100 µM (inactive) throughout.
